These results are taken from the NIST ThermoML archive (doi:10.1016/j.fluid.2007.06.010).

Numbers after ± are expanded uncertainties.

The nature of the series: refractive index (Na D-line) (dimensionless). The following applies: 298.15 K; 101.33 kPa; Liquid; Standard Abbe refractometry.
As to `CC(C)CC(C)(C)C` [2,2,4-trimethylpentane], the refractive index stood at 1.389 ± 0.0007.

With `CCOC(C)(C)C` [2-ethoxy-2-methylpropane], the refractive index is listed as 1.373 ± 0.0007.

As to `c1ccsc1` [thiophene], the refractive index is given as 1.5255 ± 0.0007.

For `Cc1ccccc1` [toluene], the refractive index is listed as 1.494 ± 0.0007.
